One experiment has as its system HCT116. Briefly: cells. Format: cell-based, human. Conditions: for IC50: read-out: IC50 HCT116. In outline: (§1)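 Compound exposure ran 72 h at six concentrations (0–1000 nM or 0–10000 nM, duplicate) on cells plated at 30,000 cells/mL in 10% FBS DMEM. A closing 37 °C incubation took 15 min (HCT116) or 5 min (L1210).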
The test system of another experiment is L1210. In words: cells. It is filed as cell-based, mouse. In outline:
as §1

Like-named read-outs stand apart in the source and are kept apart here.

With `CCC1(NC(=O)C2Cc3ccccc3C2)CC2CN(CCc3c([nH]c4ccccc34)C(C(=O)OC)(c3cc4c(cc3OC)N(C)C3C(O)(C(=O)OC)C(OC(C)=O)C5(CC)C=CCN6CCC43C65)C2)C1` (stereo not shown) [Compound 125], the IC50 with HCT116 (Table 4) is 15 nM; with L1210 (Table 4) it was 30 nM.
As for `CC[C@]1(NC(=O)c2ccc3c(c2)CCCC3)C[C@H]2CN(CCc3c([nH]c4ccc(F)cc34)[C@@](C(=O)OC)(c3cc4c(cc3OC)N(C)[C@H]3[C@@](O)(C(=O)OC)[C@H](OC(C)=O)[C@]5(CC)C=CCN6CC[C@]43[C@@H]65)C2)C1` [Compound 189], the IC50 in the experiment with HCT116 (Table 8, 10′-F compounds) was 6.2 nM; with L1210 (Table 8, 10′-F compounds), 5 nM.
Take `CCCCCC(=O)N[C@@]1(CC)C[C@H]2CN(CCc3c([nH]c4ccccc34)[C@@](C(=O)OC)(c3cc4c(cc3OC)N(C)[C@H]3[C@@](O)(C(=O)OC)[C@H](OC(C)=O)[C@]5(CC)C=CCN6CC[C@]43[C@@H]65)C2)C1` [Compound 15]: the half-maximal inhibitory concentration (IC50) stood at 40 nM in the experiment on HCT116 (Table 1) and 55 nM with L1210 (Table 1).
Take `CC[C@]1(NC(=O)c2ccc(Cl)cc2)C[C@H]2CN(CCc3c([nH]c4ccccc34)[C@@](C(=O)OC)(c3cc4c(cc3OC)N(C)[C@H]3[C@@](O)(C(=O)OC)[C@H](OC(C)=O)[C@]5(CC)C=CCN6CC[C@]43[C@@H]65)C2)C1` [Compound 47]: the IC50 in the experiment on HCT116 (Table 2) turned out to be 3.2 nM; in the experiment on L1210 (Table 2), 3.1 nM.
In the case of `CC[C@]1(NC(=O)c2ccc(CNC(=O)OC(C)(C)C)cc2)C[C@H]2CN(CCc3c([nH]c4ccccc34)[C@@](C(=O)OC)(c3cc4c(cc3OC)N(C)[C@H]3[C@@](O)(C(=O)OC)[C@H](OC(C)=O)[C@]5(CC)C=CCN6CC[C@]43[C@@H]65)C2)C1` [Compound 66], the 50% inhibitory concentration (IC50) with HCT116 (Table 2) was 0.7 nM; with L1210 (Table 2) it was 0.76 nM.
In the case of `CCC1(NS(=O)(=O)c2cccc3c(N(C)C)cccc23)CC2CN(CCc3c([nH]c4ccccc34)C(C(=O)OC)(c3cc4c(cc3OC)N(C)C3C(O)(C(=O)OC)C(OC(C)=O)C5(CC)C=CCN6CCC43C65)C2)C1` (stereo not shown) [Compound 186], the IC50 in the experiment on HCT116 (Table 7, C20′ sulfonamides) came out at 30 nM; in the experiment on L1210 (Table 7, C20′ sulfonamides), 30 nM.
In the case of `CCC1(NC(=O)c2ccc3occc3c2)CC2CN(CCc3c([nH]c4ccccc34)C(C(=O)OC)(c3cc4c(cc3OC)N(C)C3C(O)(C(=O)OC)C(OC(C)=O)C5(CC)C=CCN6CCC43C65)C2)C1` (stereo not shown) [Compound 158], the figures for the half-inhibitory concentration (IC50) with HCT116 (Table 6) and with L1210 (Table 6) were 3.8 nM and 5 nM, respectively.
With `CCC1(NC(=O)c2cccc(OC(F)(F)F)c2)CC2CN(CCc3c([nH]c4ccccc34)C(C(=O)OC)(c3cc4c(cc3OC)N(C)C3C(O)(C(=O)OC)C(OC(C)=O)C5(CC)C=CCN6CCC43C65)C2)C1` (stereo not shown) [Compound 79], the 50% inhibitory concentration (IC50) stood at 5.9 nM in the experiment on HCT116 (Table 2) and 4.8 nM in the experiment with L1210 (Table 2).
On to `CC[C@]1(NC(=O)c2ccccc2F)C[C@H]2CN(CCc3c([nH]c4ccccc34)[C@@](C(=O)OC)(c3cc4c(cc3OC)N(C)[C@H]3[C@@](O)(C(=O)OC)[C@H](OC(C)=O)[C@]5(CC)C=CCN6CC[C@]43[C@@H]65)C2)C1` [Compound 46], for which the concentration for half-maximal inhibition (IC50) with HCT116 (Table 2) was found to be 7.7 nM; in the experiment on L1210 (Table 2), 8.4 nM.
For `CCC1(NC(=O)c2ccc(S(=O)(=O)F)cc2)CC2CN(CCc3c([nH]c4ccccc34)C(C(=O)OC)(c3cc4c(cc3OC)N(C)C3C(O)(C(=O)OC)C(OC(C)=O)C5(CC)C=CCN6CCC43C65)C2)C1` (stereo not shown) [Compound 88], the values for the IC50 in the experiment on HCT116 (Table 2) and in the experiment on L1210 (Table 2) were 30 nM and 20 nM, respectively.
As for `CCC1(NC(=O)c2ccc3ccccc3n2)CC2CN(CCc3c([nH]c4ccccc34)C(C(=O)OC)(c3cc4c(cc3OC)N(C)C3C(O)(C(=O)OC)C(OC(C)=O)C5(CC)C=CCN6CCC43C65)C2)C1` (stereo not shown) [Compound 152], the IC50 with HCT116 (Table 6) and with L1210 (Table 6) was 40 nM throughout. In the experiment with HCT116 (quinolyl series), the “loss in activity when acyl substitution site is ortho to the basic nitrogen” value is “about 100 fold”.
For `CCOc1ccc(C(=O)N[C@@]2(CC)C[C@H]3CN(CCc4c([nH]c5ccccc45)[C@@](C(=O)OC)(c4cc5c(cc4OC)N(C)[C@H]4[C@@](O)(C(=O)OC)[C@H](OC(C)=O)[C@]6(CC)C=CCN7CC[C@]54[C@@H]76)C3)C2)cc1Br` [Compound 95], the concentration for half-maximal inhibition (IC50) in the experiment with HCT116 (Table 2) stood at 6.2 nM; in the experiment with L1210 (Table 2), 3.9 nM.
With `CCC1(NC(=O)Cc2ccccc2)CC2CN(CCc3c([nH]c4ccccc34)C(C(=O)OC)(c3cc4c(cc3OC)N(C)C3C(O)(C(=O)OC)C(OC(C)=O)C5(CC)C=CCN6CCC43C65)C2)C1` (stereo not shown) [Compound 21], the IC50 in the experiment with HCT116 (Table 1) and in the experiment on L1210 (Table 1) was 55 nM in each case.
As for `CCC1(NC(=O)C2CCN(C(=O)OC(C)(C)C)CC2)CC2CN(CCc3c([nH]c4ccccc34)C(C(=O)OC)(c3cc4c(cc3OC)N(C)C3C(O)(C(=O)OC)C(OC(C)=O)C5(CC)C=CCN6CCC43C65)C2)C1` (stereo not shown) [Compound 147], the IC50 with HCT116 (Table 5) is 45 nM; in the experiment on L1210 (Table 5) it was 50 nM.
Turning to `CCC1(NS(=O)(=O)c2ccccc2)CC2CN(CCc3c([nH]c4ccccc34)C(C(=O)OC)(c3cc4c(cc3OC)N(C)C3C(O)(C(=O)OC)C(OC(C)=O)C5(CC)C=CCN6CCC43C65)C2)C1` (stereo not shown) [Compound 179], the concentration for half-maximal inhibition (IC50) in the experiment on HCT116 (Table 7, C20′ sulfonamides) amounted to 50 nM; with L1210 (Table 7, C20′ sulfonamides) it was 45 nM.
For the compound `CCC1(NC(=O)c2ccc(C)c(OC)c2)CC2CN(CCc3c([nH]c4ccccc34)C(C(=O)OC)(c3cc4c(cc3OC)N(C)C3C(O)(C(=O)OC)C(OC(C)=O)C5(CC)C=CCN6CCC43C65)C2)C1` (stereo not shown) [Compound 98], the half-maximal inhibitory concentration (IC50) in the experiment on HCT116 (Table 2) turned out to be 3.3 nM; in the experiment with L1210 (Table 2) it was 4.2 nM.
`CCC1(NC(=O)c2ccc(OC(F)(F)F)cc2)CC2CN(CCc3c([nH]c4ccccc34)C(C(=O)OC)(c3cc4c(cc3OC)N(C)C3C(O)(C(=O)OC)C(OC(C)=O)C5(CC)C=CCN6CCC43C65)C2)C1` (stereo not shown) [Compound 78]: the half-inhibitory concentration (IC50) in the experiment with HCT116 (Table 2) amounted to 4.4 nM; with L1210 (Table 2), 5.9 nM.
In the case of `CCC1(NC(=O)c2ccco2)CC2CN(CCc3c([nH]c4ccccc34)C(C(=O)OC)(c3cc4c(cc3OC)N(C)C3C(O)(C(=O)OC)C(OC(C)=O)C5(CC)C=CCN6CCC43C65)C2)C1` (stereo not shown) [Compound 134], the 50% inhibitory concentration (IC50) with HCT116 (Table 5) and in the experiment on L1210 (Table 5) was 0.7 nM in each case.
`CC[C@]1(NC(=O)c2cscn2)C[C@H]2CN(CCc3c([nH]c4ccccc34)[C@@](C(=O)OC)(c3cc4c(cc3OC)N(C)[C@H]3[C@@](O)(C(=O)OC)[C@H](OC(C)=O)[C@]5(CC)C=CCN6CC[C@]43[C@@H]65)C2)C1` [Compound 139]: the results for the IC50 in the experiment on HCT116 (Table 5) and with L1210 (Table 5) were 6.3 nM and 5.6 nM, respectively.
Consider `CCC1(NC(=O)c2ccc3c(c2)C(C)(C)CCC3(C)C)CC2CN(CCc3c([nH]c4ccccc34)C(C(=O)OC)(c3cc4c(cc3OC)N(C)C3C(O)(C(=O)OC)C(OC(C)=O)C5(CC)C=CCN6CCC43C65)C2)C1` (stereo not shown) [Compound 123], for which the IC50 in the experiment with HCT116 (Table 4) was found to be 7.8 nM; with L1210 (Table 4), 7.4 nM.
On to `CC[C@]1(NC(=O)c2cccc(N3CCOCC3)c2)C[C@H]2CN(CCc3c([nH]c4ccccc34)[C@@](C(=O)OC)(c3cc4c(cc3OC)N(C)[C@H]3[C@@](O)(C(=O)OC)[C@H](OC(C)=O)[C@]5(CC)C=CCN6CC[C@]43[C@@H]65)C2)C1` [Compound 106], for which the IC50 in the experiment with HCT116 (Table 2) was 2.8 nM; with L1210 (Table 2), 4.8 nM.
Take `CCC1(NC(=O)c2cncn2C)CC2CN(CCc3c([nH]c4ccccc34)C(C(=O)OC)(c3cc4c(cc3OC)N(C)C3C(O)(C(=O)OC)C(OC(C)=O)C5(CC)C=CCN6CCC43C65)C2)C1` (stereo not shown) [Compound 141]: the IC50 came to 2.2 nM in the experiment on HCT116 (Table 5) and 4 nM with L1210 (Table 5).
Take `CC[C@]1(NC(=O)c2ccccc2Cl)C[C@H]2CN(CCc3c([nH]c4ccccc34)[C@@](C(=O)OC)(c3cc4c(cc3OC)N(C)[C@H]3[C@@](O)(C(=O)OC)[C@H](OC(C)=O)[C@]5(CC)C=CCN6CC[C@]43[C@@H]65)C2)C1` [Compound 49]: the IC50 in the experiment on HCT116 (Table 2) stood at 55 nM; in the experiment on L1210 (Table 2), 50 nM.
As for `CC[C@]1(NC(=O)c2ccc(NC)cc2)C[C@H]2CN(CCc3c([nH]c4ccccc34)[C@@](C(=O)OC)(c3cc4c(cc3OC)N(C)[C@H]3[C@@](O)(C(=O)OC)[C@H](OC(C)=O)[C@]5(CC)C=CCN6CC[C@]43[C@@H]65)C2)C1` [Compound 62], the IC50 with HCT116 (Table 2) stood at 0.33 nM; in the experiment on L1210 (Table 2), 0.38 nM.
For `CCC1(NC(=O)C2CCOCC2)CC2CN(CCc3c([nH]c4ccccc34)C(C(=O)OC)(c3cc4c(cc3OC)N(C)C3C(O)(C(=O)OC)C(OC(C)=O)C5(CC)C=CCN6CCC43C65)C2)C1` (stereo not shown) [Compound 144], the results for the IC50 in the experiment with HCT116 (Table 5) and with L1210 (Table 5) were 35 nM and 70 nM, respectively.
In the case of `CC[C@]1(NC(=O)c2cocn2)C[C@H]2CN(CCc3c([nH]c4ccccc34)[C@@](C(=O)OC)(c3cc4c(cc3OC)N(C)[C@H]3[C@@](O)(C(=O)OC)[C@H](OC(C)=O)[C@]5(CC)C=CCN6CC[C@]43[C@@H]65)C2)C1` [Compound 137], the half-maximal inhibitory concentration (IC50) in the experiment on HCT116 (Table 5) came out at 4 nM; in the experiment with L1210 (Table 5) it was 4.5 nM.
For the compound `CC[C@]1(NC(=O)c2ccc(OC)cc2F)C[C@H]2CN(CCc3c([nH]c4ccccc34)[C@@](C(=O)OC)(c3cc4c(cc3OC)N(C)[C@H]3[C@@](O)(C(=O)OC)[C@H](OC(C)=O)[C@]5(CC)C=CCN6CC[C@]43[C@@H]65)C2)C1` [Compound 91], the IC50 in the experiment on HCT116 (Table 2) came out at 6.4 nM; in the experiment on L1210 (Table 2), 6.2 nM.
Regarding `CCC1(NC(=O)c2ccc(C)c(NC(=O)OC(C)(C)C)c2)CC2CN(CCc3c([nH]c4ccccc34)C(C(=O)OC)(c3cc4c(cc3OC)N(C)C3C(O)(C(=O)OC)C(OC(C)=O)C5(CC)C=CCN6CCC43C65)C2)C1` (stereo not shown) [Compound 102], the IC50 in the experiment on HCT116 (Table 2) amounted to 7.1 nM; with L1210 (Table 2), 6 nM.
Consider `CC[C@]1(NC(=O)c2ccc(OCc3ccccc3)cc2)C[C@H]2CN(CCc3c([nH]c4ccccc34)[C@@](C(=O)OC)(c3cc4c(cc3OC)N(C)[C@H]3[C@@](O)(C(=O)OC)[C@H](OC(C)=O)[C@]5(CC)C=CCN6CC[C@]43[C@@H]65)C2)C1` [Compound 77], for which the IC50 is 5.7 nM in the experiment with HCT116 (Table 2) and 5.4 nM in the experiment with L1210 (Table 2).
As for `CC[C@]1(NC(=O)c2cc(OC)c(OC)c(OC)c2)C[C@H]2CN(CCc3c([nH]c4ccccc34)[C@@](C(=O)OC)(c3cc4c(cc3OC)N(C)[C@H]3[C@@](O)(C(=O)OC)[C@H](OC(C)=O)[C@]5(CC)C=CCN6CC[C@]43[C@@H]65)C2)C1` [Compound 71], the IC50 was found to be 0.1 nM with HCT116 (Table 2) and 0.09 nM in the experiment on L1210 (Table 2).

The values above are taken from US10689381B2 (priority 2017, dated 2020).
